Key:
[1] = tested on: adult female Wistar rats; experiment: Acute Oral Toxicity (OECD Test Guideline 425), LD50; assay type: in vivo; parameters: key to Short-term Result / Long-term Result: X = Died; ◯ = Survived; conditions: for LD50: oral, female Wistar rats
Description: A representative lot of powder obtained as described above is a pure, stable calcium potassium salt of hydroxycitric acid having a proximate analysis of 70 to 75% hydroxycitric acid, 7.5% to 9.5% calcium, 12 to 15% potassium and 3 to 5% structural moisture. The sodium content is less than 0.5%, and HCA lactone content is less than 0.5%. An animal toxicity study was conducted on the product to establish its LD50.
Doses were selected in accordance with the Acute Oral Toxicity (OECD Test Guideline 425) Statistical Program as follows: 175, 550, 1750, 5000 mg/kg of body weight in adult female Wistar rats.

[2] = Accelerated storage study of aqueous solution; assay type: physicochemical; conditions: 5 g in 100 ml de-ionized sterile water, accelerated storage study chamber, 2 months
Description: 50 g equivalent of the hydroxy citric acid—potassium salt solution from Example 2 was taken into a glass beaker fitted with a stirring arrangement. To this solution, 43 g of the dried calcium salt from Example 1 was added and the mixture was stirred to yield a clear solution. The resultant solution was spray dried to yield a salt of hydroxycitric acid with the following analysis: potassium content 11% to 18%, calcium content 5% to 12%, structural moisture 3% to 5% and hydroxycitric acid content 70% to 76%. The sodium content was less than 0.5% and lactone less than 0.5%. The combined salt has a solubility of 5 g in 100 mL of deionized water at room temperature. This salt composition is tasteless and white in color. A solution of 5 g in 100 ml of de-ionized sterile water was subjected to an accelerated storage study chamber for 2 months.

[3] = Solubility in water; assay type: physicochemical; conditions: deionized water at room temperature
Description: The resultant solution was spray dried to yield a salt of hydroxycitric acid with the following analysis: potassium content 11% to 18%, calcium content 5% to 12%, structural moisture 3% to 5% and hydroxycitric acid content 70% to 76%. The sodium content was less than 0.5% and lactone less than 0.5%. […] This salt composition is tasteless and white in color. A solution of 5 g in 100 ml of de-ionized sterile water was subjected to an accelerated storage study chamber for 2 months.

[4] = tested on: adult female Wistar rats; experiment: Acute Oral Toxicity (OECD Test Guideline 425), LD50; assay type: in vivo; parameters: key: X = Died; ◯ = Survived; conditions: dose 2000 mg/kg, single animal
[5] = dose 5000 mg/kg, one line per animal

For “Combined Potassium-Calcium Salts of Hydroxycitric Acid [Example 3]”, the “Died (long-term, number of animals)” value ([1]; All Doses, total 6) was 0, the “Survived (long-term, number of animals)” value ([1]; All Doses, total 6) was 6 and the “Long-term Result” value ([1]; dose 175 mg/kg, single animal) was “◯”. For the same substance, the “Short-term Result” value ([1]; dose 175 mg/kg, single animal) was “◯”, the “Died (long-term, number of animals)” value ([1]; dose 175 mg/kg, total 1) was 0 and the “Survived (long-term, number of animals)” value ([1]; dose 175 mg/kg, total 1) was 1. The “Long-term Result” value ([1]; dose 550 mg/kg, single animal) was “◯”, the “Short-term Result” value ([1]; dose 550 mg/kg, single animal) was “◯” and the “Died (long-term, number of animals)” value ([1]; dose 550 mg/kg, total 1) was 0. For the same substance, the “Survived (long-term, number of animals)” value ([1]; dose 550 mg/kg, total 1) was 1, the “Died (long-term, number of animals)” value ([1]; dose 2000 mg/kg, total 1) was 0 and the “Survived (long-term, number of animals)” value ([1]; dose 2000 mg/kg, total 1) was 1. For the same substance, the “Long-term Result” value [1, 5] was “◯”, the “Short-term Result” value [1, 5] was “◯” and the “Died (long-term, number of animals)” value ([1]; dose 5000 mg/kg, total 3) was 0. The “Survived (long-term, number of animals)” value ([1]; dose 5000 mg/kg, total 3) was 3, the LD50 [1] was “more than 5 gm/kg” and the LD50 ([1]; conclusion of Table 8) was “Conclusion: LD50 of a sample of the Test Compound was found to be greater than 5000 mg/kg”. For the same substance, the “clarity of solution after storage” value [2] was “retained its clarity”, the “precipitation of salt after storage of solution” value [2] was “did not precipitate out” and the solubility [3] was 5 g in 100 mL. The “Long-term Result” value [4] was “◯” and the “Short-term Result” value [4] was “◯”.

Reference: patent US7507421B2, “Hydroxycitric acid salt composition and method of making” (Unibar Corporation, priority 2002, dated 2009)
